Data from patent EP0251827A2, “New cyclic ether derivatives, their preparation and their use” (Sankyo Company Limited, priority 1986, dated 1988).

Test system: PAF-induced hypotension
Experiment: Inhibition of PAF-induced hypotension
Assay type: in vivo, rats of the Wistar-Imamichi strain
Conditions: Rattus norvegicus, iv; 50% inhibitory dose from dose-response curve for inhibition of PAF-induced hypotension; rats; read-out: Inhibition of Hypotension ID50
Description: The test animals employed were rats of the Wistar-Imamichi strain, each weighing between 350 and 450 g.
Under Inactin anesthesia (90 mg/kg administered intraperitoneally) the left femoral artery and vein of each test animal were cannulated to enable the arterial blood pressure to be monitored continuously and for drug administration, respectively. At intervals of about 5 minutes, each animal was given by intravenous injection 10 ng/kg of synthetic I-C16:0 PAF until a steady hypotensive response was achieved. At this time, the drug to be tested was administered by intravenous injection in doses increasing cumulatively by a factor of 4. Within I minute of this injection, a further 10 ng/kg of the IC16:0 PAF was administered. The hypotensive response to PAF was inhibited by the test drug in a dose-related manner.
The PAF was administered in the form of a solution in physiological saline containing 0.25% w/v bovine serum albumin. The test drugs were dissolved in physiological saline containing 20% v/v ethanol.
The 50% inhibitory dose (ID 50 ) was calculated from the dose-response curve constructed for the inhibition of PAF-induced hypotension.
This test was carried out using compounds of the invention, as well as the prior art compound CV-3988, disclosed in US Patent No. 4,408,052 and represented by the foregoing formula (B).

## CCCCCCCCCCCCCCCCCCNC(=O)OCC(COP(=O)([O-])OCC[n+]1ccsc1)OC (stereo not shown) [CV - 3988]
  ED50: 0.42 mg/kg
